Results taken from US9242987B2, “Heterocyclyl pyrazolopyrimidine analogues as JAK inhibitors” (Cellzome Limited, priority 2009, dated 2016).
pIC50: −log10 of the molar value.

Columns and labels:
[1] = molecular target: T1, JAK3 (Homo sapiens, UniProt P52333); assay: Kinobeads assay, JAK3; format: binding; conditions: mixed Molt4/Ramos cell lysate, dot blot detection
T1 construct: endogenous in cells; host or cells: Mixed Molt4/Ramos lysate (1:2)
T1 sequence (P52333 1-1124): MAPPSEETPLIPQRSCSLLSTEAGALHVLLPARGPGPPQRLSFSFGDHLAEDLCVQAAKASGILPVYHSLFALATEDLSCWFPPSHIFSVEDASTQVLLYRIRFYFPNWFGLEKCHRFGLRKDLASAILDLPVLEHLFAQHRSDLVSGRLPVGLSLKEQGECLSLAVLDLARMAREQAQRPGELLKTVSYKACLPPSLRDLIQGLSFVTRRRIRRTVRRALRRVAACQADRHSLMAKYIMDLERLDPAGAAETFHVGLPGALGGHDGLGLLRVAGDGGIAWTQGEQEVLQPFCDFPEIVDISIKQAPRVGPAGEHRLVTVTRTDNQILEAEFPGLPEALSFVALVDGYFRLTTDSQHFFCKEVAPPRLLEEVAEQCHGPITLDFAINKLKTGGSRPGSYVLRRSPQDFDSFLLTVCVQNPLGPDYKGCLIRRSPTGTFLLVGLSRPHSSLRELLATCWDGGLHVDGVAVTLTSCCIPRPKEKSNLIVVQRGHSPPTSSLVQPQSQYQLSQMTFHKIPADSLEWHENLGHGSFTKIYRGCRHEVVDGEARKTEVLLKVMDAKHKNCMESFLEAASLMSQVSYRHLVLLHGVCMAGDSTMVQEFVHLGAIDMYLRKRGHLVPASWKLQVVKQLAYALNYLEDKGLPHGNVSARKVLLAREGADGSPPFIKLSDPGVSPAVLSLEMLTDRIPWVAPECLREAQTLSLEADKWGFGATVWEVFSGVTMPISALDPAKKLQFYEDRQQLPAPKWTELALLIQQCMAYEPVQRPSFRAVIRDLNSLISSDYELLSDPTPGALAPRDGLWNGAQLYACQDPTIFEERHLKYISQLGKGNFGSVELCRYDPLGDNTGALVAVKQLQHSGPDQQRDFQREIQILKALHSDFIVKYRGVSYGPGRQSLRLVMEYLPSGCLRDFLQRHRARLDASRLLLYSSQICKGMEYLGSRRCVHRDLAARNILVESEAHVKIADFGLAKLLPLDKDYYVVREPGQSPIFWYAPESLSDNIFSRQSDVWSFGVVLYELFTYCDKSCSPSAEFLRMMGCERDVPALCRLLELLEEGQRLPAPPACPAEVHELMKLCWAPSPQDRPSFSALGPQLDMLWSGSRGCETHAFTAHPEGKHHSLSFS
Procedure, shortened: (§1)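 Competition pulldown: compound dilution series incubated 3 h in cold room with immobilized aminopyrido-pyrimidine beads and mixed Molt4/Ramos lysate (1:2, 10 mg/mL protein) in DP buffer pH 7.4 with NP40. Bead-bound JAK2/JAK3 eluted, quantified by antibody dot blot with infrared detection; IC50 from dose-response curves.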

[2] = molecular target: T2, JAK2 (Homo sapiens, UniProt O60674); assay: Kinobeads assay, JAK2; format: binding; conditions: mixed Molt4/Ramos cell lysate, dot blot detection
T2 construct: endogenous in cells; host or cells: Mixed Molt4/Ramos lysate (1:2)
Procedure, shortened: as §1

T2 sequence (O60674 whole entry): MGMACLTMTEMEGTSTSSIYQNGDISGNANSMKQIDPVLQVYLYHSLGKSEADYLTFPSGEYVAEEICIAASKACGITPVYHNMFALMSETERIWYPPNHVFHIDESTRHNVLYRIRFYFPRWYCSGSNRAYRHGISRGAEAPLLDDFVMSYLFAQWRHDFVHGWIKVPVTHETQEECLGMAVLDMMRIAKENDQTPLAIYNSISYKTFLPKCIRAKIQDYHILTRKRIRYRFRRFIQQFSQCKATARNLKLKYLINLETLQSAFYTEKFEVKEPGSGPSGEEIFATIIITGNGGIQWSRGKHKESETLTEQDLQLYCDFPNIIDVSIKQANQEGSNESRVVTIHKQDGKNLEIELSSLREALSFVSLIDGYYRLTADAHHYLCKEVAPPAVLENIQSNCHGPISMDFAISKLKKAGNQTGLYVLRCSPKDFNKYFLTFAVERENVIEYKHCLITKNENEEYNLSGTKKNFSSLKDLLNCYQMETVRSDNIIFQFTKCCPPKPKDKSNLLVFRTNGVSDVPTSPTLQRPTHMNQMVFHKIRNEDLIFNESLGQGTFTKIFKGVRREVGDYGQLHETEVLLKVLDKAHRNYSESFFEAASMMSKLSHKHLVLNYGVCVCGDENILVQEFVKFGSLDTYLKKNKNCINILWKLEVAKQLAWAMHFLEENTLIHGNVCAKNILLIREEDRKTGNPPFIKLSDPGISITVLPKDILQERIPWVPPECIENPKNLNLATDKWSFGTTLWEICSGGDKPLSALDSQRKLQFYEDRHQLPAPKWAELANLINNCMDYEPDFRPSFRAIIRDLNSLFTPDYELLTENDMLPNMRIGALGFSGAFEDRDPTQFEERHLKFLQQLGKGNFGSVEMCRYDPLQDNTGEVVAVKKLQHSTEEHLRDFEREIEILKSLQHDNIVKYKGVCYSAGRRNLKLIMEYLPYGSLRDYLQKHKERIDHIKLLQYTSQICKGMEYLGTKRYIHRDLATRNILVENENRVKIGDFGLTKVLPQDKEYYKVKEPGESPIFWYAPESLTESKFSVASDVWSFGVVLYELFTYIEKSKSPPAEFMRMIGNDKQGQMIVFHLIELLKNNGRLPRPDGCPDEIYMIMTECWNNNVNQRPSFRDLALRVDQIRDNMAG

pIC50 [1]	pIC50 [2]	Structure (SMILES)
> 7.00	> 7.00	Cn1cc(Nc2ncc3cnn(Cc4ccccc4F)c3n2)cc1C(=O)NCCN1CCOCC1 [Example 243, 4-((1-(2-Fluorobenzyl)-1H-pyrazolo[3,4-d]pyrimidin-6-yl)amino)-1-methyl-N-(2-morpholinoethyl)-1H-pyrrole-2-carboxamide]
> 7.00	> 7.00	Cn1cc(Nc2ncc3cnn(Cc4ccccc4F)c3n2)cc1C(=O)N1CCOCC1 [Example 244, (4-((1-(2-Fluorobenzyl)-1H-pyrazolo[3,4-d]pyrimidin-6-yl)amino)-1-methyl-1H-pyrrol-2-yl)(morpholino)methanone]
> 7.00	6.00 to 7.00	Cn1cc(Nc2ncc3cnn(Cc4ccccc4F)c3n2)cc1C(=O)NCC#N [Example 245, N-(Cyanomethyl)-4-((1-(2-fluorobenzyl)-1H-pyrazolo[3,4-d]pyrimidin-6-yl)amino)-1-methyl-1H-pyrrole-2-carboxamide]
> 7.00	6.00 to 7.00	CN(C)C(=O)c1cc(Nc2ncc3cnn(Cc4ccccc4F)c3n2)cn1C [Example 246, 4-((1-(2-Fluorobenzyl)-1H-pyrazolo[3,4-d]pyrimidin-6-yl)amino)-N,N,1-trimethyl-1H-pyrrole-2-carboxamide]
> 7.00	6.00 to 7.00	OCCn1ccc(Nc2ncc3cnn(Cc4ccccc4F)c3n2)c1 [Example 247, 2-(3-((1-(2-Fluorobenzyl)-1H-pyrazolo[3,4-d]pyrimidin-6-yl)amino)-1H-pyrrol-1-yl)ethanol]
> 7.00	5.00 to 6.00	Cn1cc(Nc2ncc3cnn(Cc4cccc(N5CCOCC5)c4)c3n2)cc1C(=O)N1CCOCC1 [Example 248]
> 7.00	6.00 to 7.00	OCCn1cc(Nc2ncc3cnn(Cc4c(F)ccc(F)c4F)c3n2)cn1 [Example 254, 2-(4-((1-(2,3,6-Trifluorobenzyl)-1H-pyrazolo[3,4-d]pyrimidin-6-yl)amino)-1H-pyrazol-1-yl)ethanol]
> 7.00	5.00 to 6.00	OCCn1cc(Nc2ncc3cnn(Cc4ccccc4C4CC4)c3n2)cn1 [Example 260, 2-(4-((1-(2-Cyclopropylbenzyl)-1H-pyrazolo[3,4-d]pyrimidin-6-yl)amino)-1H-pyrazol-1-yl)ethanol]
> 7.00	5.00 to 6.00	OCCn1cc(Nc2ncc3cnn(Cc4c(F)cccc4C(F)(F)F)c3n2)cn1 [Example 261, 2-(4-((1-(2-Fluoro-6-(trifluoromethyl)benzyl)-1H-pyrazolo[3,4-d]pyrimidin-6-yl)amino)-1H-pyrazol-1-yl)ethanol]
> 7.00	5.00 to 6.00	OCCn1cc(Nc2ncc3cnn(Cc4c(F)c(F)cc(N5CCNCC5)c4F)c3n2)cn1 [Example 283, 2-(4-((1-(2,3,6-Trifluoro-5-(piperazin-1-yl)benzyl)-1H-pyrazolo[3,4-d]pyrimidin-6-yl)amino)-1H-pyrazol-1-yl)ethanol]
> 7.00	6.00 to 7.00	CNC(=O)Cn1cc(Nc2ncc3cnn(Cc4ccccc4F)c3n2)cn1 [Example 290, 2-(4-((1-(2-Fluorobenzyl)-1H-pyrazolo[3,4-d]pyrimidin-6-yl)amino)-1H-pyrazol-1-yl)-N-methylacetamide]
> 7.00	5.00 to 6.00	CNC(=O)Cn1cc(Nc2ncc3cnn(Cc4cccc(F)n4)c3n2)cn1 [Example 291, 2-(4-((1-((6-Fluoropyridin-2-yl)methyl)-1H-pyrazolo[3,4-d]pyrimidin-6-yl)amino)-1H-pyrazol-1-yl)-N-methylacetamide]
> 7.00	5.00 to 6.00	O=C1COCCN1c1ccc(F)c(Cn2ncc3cnc(Nc4cnn(CCO)c4)nc32)c1F [Example 293, 4-(2,4-Difluoro-3-((6-((1-(2-hydroxyethyl)-1H-pyrazol-4-yl)amino)-1H-pyrazolo[3,4-d]pyrimidin-1-yl)methyl)phenyl)morpholin-3-one]
> 7.00	5.00 to 6.00	Cn1cc(Nc2ncc3cnn(Cc4c(F)ccc(N5CCNCC5)c4F)c3n2)cn1 [Example 301, 1-(2,6-Difluoro-3-(piperazin-1-yl)benzyl)-N-(1-methyl-1H-pyrazol-4-yl)-1H-pyrazolo[3,4-d]pyrimidin-6-amine]
> 7.00	5.00 to 6.00	O=C1CNCCN1c1ccc(F)c(Cn2ncc3cnc(Nc4cnn(CCO)c4)nc32)c1F [Example 302, 1-(2,4-Difluoro-3-((6-((1-(2-hydroxyethyl)-1H-pyrazol-4-yl)amino)-1H-pyrazolo[3,4-d]pyrimidin-1-yl)methyl)phenyl)piperazin-2-one]
> 7.00	5.00 to 6.00	OCCn1cc(Nc2ncc3cnn(Cc4c(F)ccc(N5CCNCC5)c4F)c3n2)cn1 [Example 304, 2-(4-((1-(2,6-Difluoro-3-(piperazin-1-yl)benzyl)-1H-pyrazolo[3,4-d]pyrimidin-6-yl)amino)-1H-pyrazol-1-yl)ethanol]
> 7.00	6.00 to 7.00	Fc1ccccc1Cn1ncc2cnc(Nc3cnn(CC4CCNC4)c3)nc21 (stereo not drawn) [Example 306, 1-(2-Fluorobenzyl)-N-(1-(pyrrolidin-3-ylmethyl)-1H-pyrazol-4-yl)-1H-pyrazolo[3,4-d]pyrimidin-6-amine]
> 7.00	6.00 to 7.00	OCCn1cc(Nc2ncc3cnn(Cc4cccc(F)n4)c3n2)cn1 [Example 314, 2-(4-((1-((6-Fluoropyridin-2-yl)methyl)-1H-pyrazolo[3,4-d]pyrimidin-6-yl)amino)-1H-pyrazol-1-yl)ethanol]
